The results in this text go back to ChEMBL document CHEMBL5209571, “Membrane potential based assay for SLC13A3 using HEK-293 SLC13A3 OE cells” (2022).

The experiment deals with T1, Na(+)/dicarboxylate cotransporter 3 (Homo sapiens, UniProt Q8WWT9).
T1 sequence (Q8WWT9 whole entry): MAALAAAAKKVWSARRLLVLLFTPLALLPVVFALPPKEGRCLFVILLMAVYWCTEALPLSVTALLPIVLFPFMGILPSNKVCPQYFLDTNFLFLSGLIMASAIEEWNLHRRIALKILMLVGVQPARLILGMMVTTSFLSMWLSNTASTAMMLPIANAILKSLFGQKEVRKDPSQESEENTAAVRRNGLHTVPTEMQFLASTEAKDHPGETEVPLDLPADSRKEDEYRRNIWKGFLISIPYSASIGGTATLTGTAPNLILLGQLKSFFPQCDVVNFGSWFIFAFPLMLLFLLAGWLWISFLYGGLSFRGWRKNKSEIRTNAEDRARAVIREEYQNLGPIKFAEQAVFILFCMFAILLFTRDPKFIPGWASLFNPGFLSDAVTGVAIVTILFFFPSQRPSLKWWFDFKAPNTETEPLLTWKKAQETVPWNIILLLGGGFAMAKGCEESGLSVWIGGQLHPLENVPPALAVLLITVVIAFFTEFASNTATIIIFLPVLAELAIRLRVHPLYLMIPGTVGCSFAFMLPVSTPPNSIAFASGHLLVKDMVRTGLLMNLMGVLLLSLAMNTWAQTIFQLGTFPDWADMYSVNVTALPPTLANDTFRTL
The experiment is described as follows: Substrate uptake by the Na(+)/Dicarboxylate Cotransporter 3 (NADC3, SLC13A3) as assessed by the fluorescent FLIPR membrane potential dye in HEK-293 JumpIN-SLC13A3 cells (PubChem AID: 1794820). The class given is functional, cell-based, HEK293.

As for `O=C(O)CCC(=O)C(=O)O` [ALPHA-KETOGLUTARIC ACID], the EC50 – broadly, the midpoint of the concentration-response curve – was found to be 54 µM.

As for `O=C(O)CCC(=O)O` [SUCCINIC ACID], the EC50 turned out to be 107 µM.
